Data taken from paper PMC11633381 (mBio, 2024).

Assays:
[1] = biological target: T1, BoSusB (BoGH97CSus) (Bacteroides ovatus, UniProt A0AAN3A6N4); assay: co-crystal structure; competitive inhibition kinetics with pNP-Glc; format: biochemical
T1 construct: gene BACOVA_03519; N-terminal 6x His tag, recombinant

[2] = biological target: T2, BtGH97H (Bacteroides thetaiotaomicron, UniProt Q89YZ9); assay: competitive inhibition kinetics with pNP-Glc; format: biochemical
T2 construct: gene BT_4581; N-terminal 6x His tag, recombinant

[3] = biological target: T3, SusA (Bacteroides thetaiotaomicron, UniProt Q8A1G0); assay: inhibition kinetics with pNP-G6 (αKi); also ITC binding to free enzyme; format: biochemical
T3 construct: cloned starting with T23

[4] = biological target: T4, BoSusG (BoGH13ASus) (Bacteroides ovatus, UniProt A0ABU3ISA0); assay: EnzChek fluorescent starch amylase assay; format: biochemical
T4 construct: gene RO706_06355

[5] = biological target: T5, BoGH97D (Bacteroides ovatus, UniProt A0ABU3IP51); assay: competitive inhibition kinetics with pNP-Glc; format: biochemical
T5 construct: gene RO706_07160; N-terminal 6x His tag, recombinant

[6] = biological target: T6, BoSusA (BoGH13BSus) (Bacteroides ovatus, UniProt A0ABU3INP3, D331N); assay: isothermal titration calorimetry; format: binding
T6 construct: gene RO706_06385; cloned starting with A90 (A23 in SusA numbering)

[7] = biological target: T7, SusA (Bacteroides thetaiotaomicron, UniProt Q8A1G0, D331N); assay: isothermal titration calorimetry; format: binding
T7 construct: cloned starting with T23

[8] = biological target: T8, BoSusA (BoGH13BSus) (Bacteroides ovatus, UniProt A0ABU3INP3); assay: inhibition kinetics with pNP-G6 (αKi); also ITC binding to free enzyme; format: biochemical; conditions: read-out: Inhibition constant
T8 construct: gene RO706_06385; cloned starting with A90 (A23 in SusA numbering)

## C[C@H]1O[C@H](O[C@H]2[C@H](O)[C@@H](O)[C@@H](O[C@H]3[C@H](O)[C@@H](O)C(O)O[C@@H]3CO)O[C@@H]2CO)[C@H](O)[C@@H](O)[C@@H]1N[C@H]1C=C(CO)[C@@H](O)[C@H](O)[C@H]1O (some centres unmarked) [acarbose]
[1]
  Ki: 69.3 ± 8.9 nM
[2]
  Ki: 162 ± 24.3 nM
[3]
  Ki: 94.7 ± 6.9 nM
[4]
  IC50: 2200 ± 350 nM
[5]
  Ki: 134 ± 22.4 nM
[6]
  isothermal titration calorimetry: Wild-type enzyme has two acarbose-binding sites, whereas a catalytically inert variant of each enzyme (D331N) has one
[7]
  isothermal titration calorimetry: Wild-type enzyme has two acarbose-binding sites, whereas a catalytically inert variant of each enzyme (D331N) has one
[8]
  Ki: 123 ± 9.2 nM
